Results on one molecule are retold here after patent US20110263423A1, “Plant Health Composition” (BASF SE, priority 2008, published 2011).

What all share (format): in vivo
Test [1] has as its system spring wheat (cv. Passat). The test is described as follows: Spring wheat pot trial, optimal water supply (Example 1). On the procedure: Mitcherlich pots of known weight were filled with 5.5 kg of sandy dry soil (pH 6.8) and fertilized (P, K and Mg) to optimal growing conditions. The culture was spring wheat (cv. Passat); 12 plants per pot. The experiment was conducted with 6 replications in a vegetation hall. Experiments were carried out under semi controlled conditions at very low disease-pressure with insignificant infection rates, protected from any undesired rain or water impact. The water consumption of each pot was calculated on the basis of the recorded measurements of the weight of the pots prior to each irrigation event up to the defined set point.
Nitrogen fertilizer (totally 1.75 g N/pot) was added in equal amounts at 3 stages to allow optimal growth conditions throughout the life cycle. All plants/pots were grown at optimal water supply by watering 2-3 times a day to 60% of the water holding capacity of the soil.
Compound Ia (62.5 g/L, 2 L in 400 L water/ha) was applied at growth stage 39/49 (BBCH scale), which is an EC formulation of compound Ia. Control plants were not treated.
Plant Height, as an indicator of plant vigor, was measured after heading. At maturity of the plants the grain, as an indicator of yield, was harvested and uniformly dried to 5% moisture content. Straw yield, as an another indicator of plant yield, was also determined and the number of halms with ear per pot was counted at maturity. Number of grains per pot was counted after harvest. Thousand Grain Weight (TGW), as yet another indicator of plant yield, was calculated based on grain yield per pot and number of grains per pot.

For test [2], the system named is spring wheat (cv. Passat). The test is described as follows: Spring wheat pot trial, moderate drought stress (Example 3). As for the experimental part:
Spring wheat (cv. Passat) was cultivated in Mitcherlich pots as described above in example 1. The experiment was conducted with 6 replications in a vegetation hall. Experiments were carried out under semi controlled conditions at very low disease-pressure with insignificant infection rates, protected from any undesired rain or water impact. The water consumption of each pot was calculated on the basis of the recorded measurements of the weight of the pots prior to each irrigation event up to the defined set point. Pots without crop coverage were used to estimate the evaporation of the soil.
Nitrogen fertilizer (totally 1.75 g N/pot) was added in equal amounts at 3 stages to allow optimal growth conditions throughout the life cycle. All plants/pots were grown at optimal water supply by watering 2-3 times a day to 60% of the water holding capacity of the soil until growth stage 55 (BBCH). Then, pots were only watered to 30% of the maximum water holding capacity of the soil to apply moderate drought stress. Compound Ia (62.5 g/l, 2 L in 400 L water/ha) was applied at growth stage 39/49 (BBCH scale), which is an EC formulation of comound Ia. Control plants were not treated.
At maturity of the plants the grain was harvested and uniformly dried to 5% moisture content. Number of grains per pot was counted after harvest. Thousand Grain Weight (TGW), as an indicator of plant yield, was calculated based on grain yield per pot and number of grains per pot. Transpiration was calculated on the basis of the amount of water added to the respective pots and the estimated soil evaporation. Water use efficiency, as an indicator of drought stress tolerance of a plant, was calculated based on the respective transpiration per pot.

The next test concerns Maize (Dekalb RX940). The test is described as follows: Maize field trial, Dinuba 2008 (Example 5). On the procedure:
Maize was grown in 2008 in a field trial at the BASF experimental station in Dinuba, 10181 Avenue 416, Calif., U.S.A. The variety Dekalb RX940 was planted at a seeding rate of 10 plants/m^2. Four rows per plot were planted with a row spacing of 0.75 m. The trial was setup as a randomized bloc design with 5 replications, each. Plot size was 43 m^2. Compound Ia was used as an EC formulation (62.5 g a.i./L) with a dose rate of 0.8 L per hectar (50 g a.i./ha). The formulation was applied in a total spray volume of 400 L/ha. Compound Ia was sprayed at a growth stage 51/55 (BBCH) with a tractor mounted spray boom with VS11003 spray nozzles at 3 bar spray pressure.
No disease symptoms were visible at the application time and no symptoms were detected at later stages.
Green leaf area, as an indicator of plant vigor, was assessed beginning of ripening by estimating the green leaf area in 10 randomly chosen plants per plot.
At maturity the grain was harvested and the grain yield per plot, as an indicator of plant yield, was determined (kg/plot). Finally, the grain yield per hectare, as an aditional indicator of plant yield, was calculated (dt/ha). Furthermore, the Thousand Grain Weight (TGW) was determined in the second trial (Crow C300 42).

Another test concerns Soybeans (M-SOY 6001 RR). The test is described as follows: Soybean field trial Brazil, ternary mixture, Colby synergism (Example 7). The conditions noted are these: soybean M-SOY 6001 RR, Ia 40, epoxiconazol 40, pyraclostrobin 65 g a.i./ha. On the procedure: Soybeans were grown in 2008 at the CEDUP “Caetano Vieira da Costa” in Sao José do Cerrito, Santa […], Brazil. The variety M-SOY 6001 RR was planted in 2007, 11 Nov., at a seeding rate of 300.000 plants per ha. Row spacing was 50 cm. The trial was setup as a randomized bloc design with 4 replications. Plot size was 12.5 m^2. Fungicide treatments were applied at BBCH GS 70-79 (pods reached 15-20 mm of final […]). The fungicides were used as formulations. Compound Ia was applied as an EC formulation (62.5 g/L-EC) at 0.64 L/ha (40 g ai/ha). […] The adjuvant DASH HC was added to the spray tank with 0.3% (v/v). Finally, compound Ia was applied in a mixture together with epoxiconazol and pyraclostrobin forming a ternary mixture according to the present invention, using a coformulation of all three compounds (50 g/L of compound Ia+50 g/L of epoxiconazol+81 g/L of pyraclostrobin-EC). This formulation was sprayed at a rate of 0.8 […] compound […] epoxiconazol+65 g a.i./ha pyraclostrobin). The formulations were diluted in water. Total spray volume for foliar application was 150 L/ha. The trial was conducted under low disease pressure. […] Plots were harvested at maturity of the soybean crop and the yield (thousand grain weight) was determined (table 11). The efficacy in yield increase was calculated as % increase of the Thousand Grain Weight (TGW) by the treatments compared to the untreated control. […]

The mark [3] stands for this setting: moderate drought stress, 2 L/ha EC at BBCH 39/49.

Take `Cn1cc(C(=O)Nc2ccccc2-c2cc(F)c(F)c(F)c2)c(C(F)F)n1` [Compound Ia, N-(3′,4′,5′-trifluorobiphenyl-2-yl)-3-difluoromethyl-1-methyl-1H-pyrazole-4-carboxamide]: in test [1] (2 L/ha EC at BBCH 39/49), the “Grain yield/pot, change vs untreated control” value is given as “(+6%)”; the “Number of halms with ear/pot, change vs untreated control” value is listed as “(+16%)”; the “Plant height, change vs untreated control” value is on record as “(+2%)”; the Straw yield came out at 70.0 g/pot. Besides, in test [1] (2 L/ha EC at BBCH 39/49), the “Straw yield, change vs untreated control” value is reported as “(+6%)”; the “TGW (Thousand Grain Weight)” value is 32.0 g; the “TGW, change vs untreated control” value was “(+2%)”. For the same molecule, in test [1] (2 L/ha EC at BBCH 39/49, at maturity), the “Number of halms with ear/pot” value worked out at 37.5. The molecule further returned a Grain yield/pot in test [1] (2 L/ha EC at BBCH 39/49, grain dried to 5% moisture) of 74.2 g/pot. Also, the Plant height in test [1] (EC 62.5 g/L, 2 L in 400 L water/ha at BBCH 39/49, measured after heading) is recorded as 76.2 cm. For the same molecule, in test [2] (moderate drought stress), the “Thousand Grain Weight, change vs untreated control” value is reported as “(+4%)”; the “Transpiration, change vs untreated control” value was “(−4%)”; the “Water use efficiency, change vs untreated control” value is listed as “(+3%)”. This molecule gave a Transpiration in test [2] (moderate drought stress (30% water holding capacity from BBCH 55), 2 L/ha EC at BBCH 39/49) of 26.5 L water/pot. For the same molecule, in test [2] (setting [3]), the “Thousand Grain Weight” value turned out to be 31.2 g and the Water use efficiency stood at 2.02 g grain/L water. In addition, in the test on Maize (Dekalb RX940) (50 g a.i./ha), the “Grain yield, increase as % of untreated” value is “(+4.5%)” and the “TGW, increase as % of untreated” value is “(+3.3%)”. In the test with Maize (Dekalb RX940) (50 g a.i./ha at BBCH 51/55), this molecule returned a Grain yield of 154.7 dt/ha and a TGW of 317.0 g. In addition, the “% Green leaf area” value in the test with Maize (Dekalb RX940) (50 g a.i./ha at BBCH 51/55, beginning of ripening) is 49.0%. Moreover, the “Grain yield, increase as % of untreated” value with Maize (Dekalb RX940) (50 g a.i./ha, listed as compound Ia) is recorded as 4.5%. For the same molecule, in the test on Soybeans (M-SOY 6001 RR), the “Observed efficacy (% increase of TGW vs untreated control)” value was 0%. For the same molecule, the TGW with Soybeans (M-SOY 6001 RR) (BBCH 70-79) is recorded as 153 g.
